Among the data in patent US20220281886A1, “NATRIURETIC PEPTIDE RECEPTOR A AGONISTS USEFUL FOR THE TREATMENT OF CARDIOMETABOLIC DISEASES, KIDNEY DISEASE AND DIABETES” (Merck Sharp & Dohme Corp., priority 2019, published 2022) are EC50 values, retold here.

The experiment addresses T1, hNPRA (Homo sapiens, UniProt P16066).
T1 construct: expressed in transfected cells
T1 sequence (P16066 33-1061): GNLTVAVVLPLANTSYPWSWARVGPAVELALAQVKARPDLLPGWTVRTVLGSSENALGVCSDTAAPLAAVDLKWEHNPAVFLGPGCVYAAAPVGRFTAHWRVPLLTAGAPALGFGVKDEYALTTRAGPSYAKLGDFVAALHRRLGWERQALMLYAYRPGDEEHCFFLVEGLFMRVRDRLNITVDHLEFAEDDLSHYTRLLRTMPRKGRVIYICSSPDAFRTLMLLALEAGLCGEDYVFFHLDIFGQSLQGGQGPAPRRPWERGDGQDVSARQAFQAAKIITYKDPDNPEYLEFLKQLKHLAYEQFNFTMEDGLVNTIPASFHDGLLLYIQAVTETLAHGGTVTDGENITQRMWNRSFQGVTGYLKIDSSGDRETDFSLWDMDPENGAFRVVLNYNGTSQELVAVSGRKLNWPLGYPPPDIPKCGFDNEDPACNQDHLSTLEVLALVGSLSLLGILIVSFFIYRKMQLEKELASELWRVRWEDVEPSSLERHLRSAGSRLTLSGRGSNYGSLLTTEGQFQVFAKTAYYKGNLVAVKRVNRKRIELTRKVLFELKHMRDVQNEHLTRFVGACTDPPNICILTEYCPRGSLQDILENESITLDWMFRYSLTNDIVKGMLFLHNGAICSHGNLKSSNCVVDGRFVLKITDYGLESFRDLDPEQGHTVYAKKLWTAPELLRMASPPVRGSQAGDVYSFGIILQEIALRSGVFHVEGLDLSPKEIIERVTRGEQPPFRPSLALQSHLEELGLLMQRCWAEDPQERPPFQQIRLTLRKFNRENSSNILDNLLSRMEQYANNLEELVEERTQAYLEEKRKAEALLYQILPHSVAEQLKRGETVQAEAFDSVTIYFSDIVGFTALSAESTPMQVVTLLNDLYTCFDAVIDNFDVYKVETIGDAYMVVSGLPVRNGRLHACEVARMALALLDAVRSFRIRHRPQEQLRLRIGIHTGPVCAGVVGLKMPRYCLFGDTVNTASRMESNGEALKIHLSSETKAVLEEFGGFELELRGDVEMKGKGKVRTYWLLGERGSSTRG
The experiment in a line: NPRA Functional Cell Assay (cGMP HTRF). The experiment is classed as cell-based. The following applies: Human NPRA HEK JumpIn stable cells; cGMP by HTRF after 1 hour at 37° C.; 10-point dose response. The text has this:
Assay Buffer components HEPES and Opti-MEM® I Reduced-Serum with Glutamine (no phenol red) were from Gibco/Invitrogen (Thermo Fisher Scientific, Waltham, Mass. USA). 3-Isobutyl-1-methylxanthine (IBMX) and 4-(3-Butoxy-4-methoxybenzyl)imidazolidin-2-one (RO20) were obtained from Sigma-Aldrich (St. Louis, Mo., USA). DPBS (Dulbecco's phosphate-buffered saline) without Ca2+ and Mg2+ was purchased from GE Healthcare Bio-Sciences (Pittsburgh, Pa., USA). 384 well white Optiplates were from Perkin Elmer (Atlantic Highlands, N.J., USA). Human ANP (Atrial Natriuretic Peptide) (1-28) was purchased from Sigma-Aldrich (Catalog #A1663) and rat ANP (1-28) from Bachem (Torrance, Calif., USA) (Catalog #H2100). Human-BNP (Human-Brain Natriuretic Peptide) (1-32 AA) was purchased from American Peptide Company (Sunnyvale, Calif., USA) (product No. 14-1-90). cGMP kits were purchased from Cisbio. The assay ready frozen (ARF) Human/rat/dog NPRA HEK JumpIn Stable frozen cells (low passage number 5-11) were prepared in-house.
Test compounds were titrated in DMSO in a 10-point dose response in a separate step followed by a 100-fold dilution into the reaction. Positive response for each assay was determined using 10 nM rat-ANP peptide (rat cells) or 50 nM h-ANP peptide (human and dog cells).
Cells were thawed, washed with DPBS and resuspended in assay buffer (Opti-MEM+Glutamine, phenol red free media, 10 mM HEPES, 100 uM IBMX and 100 uM RO20) that was warmed to 37° C. Cells were then transferred to microplates via a Microplate Combi dispenser at a density of 1500, 400 and 1200 cells/well for human, rat and dog cells respectively, followed by acoustic transfer (Echo) of compound.
Compounds and cells were incubated at 37° C. with 5% CO2 for 1 hour, after which the cells were lysed and cGMP was captured using a CisBio cGMP HTRF assay kit. The TRF signal was measured with an Envision plate reader (emission set to 615 and 665 nm) after 1 hour incubation at ambient temperature. The TRF signal was converted to [cGMP] through the use of a cGMP calibration curve on each microplate. EC50's were generated from the resulting dose response curves by use of a 4 parameter logistic algorithm.
Assay Buffer components HEPES and Opti-MEM® I Reduced-Serum with Glutamine (no phenol red) were from Gibco/Invitrogen. 3-Isobutyl-1-methylxanthine (IBMX) and 4-(3-Butoxy-4-methoxybenzyl)imidazolidin-2-one (RO20) were obtained from Sigma. DPBS (Dulbecco's phosphate-buffered saline) without Ca2+ and Mg2+ was purchased from GE Healthcare Bio-Sciences (Pittsburgh, Pa., USA). 384 well white Optiplates were from Perkin Elmer (Atlantic Highlands, N.J., USA). Human ANP (1-28) was purchased from Sigma (A1663) and rat ANP (1-28) from Bachem (H2100). Human-BNP (1-32 AA) was purchased from American Peptide Company (Sunnyvale, Calif., USA) (product No. 14-1-90). cGMP kits were purchased from Cisbio (Bedford, Mass., USA). The assay ready frozen (ARF) Human/rat/dog NPRA HEK JumpIn Stable frozen cells (low passage number 5-11) were prepared in-house.
Compounds and cells were incubated at 37° C. with 5% CO2 for 1 hour, after which the cells were lysed and cGMP was captured using a CisBio cGMP HTRF assay kit. The TRF signal was measured with an Envision® plate reader (Perkin Elmer)(emission set to 615 and 665 nm) after 1 hour incubation at ambient temperature. The TRF signal was converted to [cGMP] through the use of a cGMP calibration curve on each microplate. EC50's were generated from the resulting dose response curves by use of a 4 parameter logistic algorithm.
hNPRA EC50 (nM) are were determined for the compounds of Example 1 through 273 and are reported in the Experimental section of this application.
On the technique in general: TR-FRET usually uses a lanthanide donor and a delayed reading to cut background.

The EC50 is the concentration that produces a half-maximal response. A low value points to a more potent agent. As to `CC(C)[C@]1(F)CCc2nc3c(F)cc(C(=O)N[C@H](CCN4CCC(CN5CCOCC5)CC4)c4ccc(-c5ccnnc5)nc4)cc3cc2C1` (racemic) [Example 60, rac-(7S)-4,7-difluoro-7-isopropyl-N-[rac-(1R)-3-[4-(morpholinomethyl)-1-piperidyl]-1-(6-pyridazin-4-yl-3-pyridyl)propyl]-6,8-dihydro-5H-acridine-2-carboxamide], the midpoint of the response, the EC50, lay at 182 nM. `CC(C)[C@]1(F)CCc2nc3c(F)cc(C(=O)N[C@H](CCN4[C@H](C)CCC[C@@H]4C)c4ccc(-c5ccnnc5)nc4)cc3cc2C1` (racemic) [Example 61, rac-(7S)-4,7-difluoro-7-isopropyl-N-[rac-(1R)-1-(6-pyridazin-4-yl-3-pyridyl)-3-[rac-(2R,6S)-2,6-dimethyl-1-piperidyllpropyl]-6,8-dihydro-5H-acridine-2-carboxamide] came in with an EC50 of 103 nM. This EC50 lies about 1.8-fold lower than the previous one. With `CC(C)[C@]1(F)CCc2nc3c(F)cc(C(=O)N[C@H](CCN4CCC5(CCO5)CC4)c4ccc(-c5ccnnc5)nc4)cc3cc2C1` (racemic) [Example 62, rac-(7S)-4,7-difluoro-7-isopropyl-N-[rac-(1R)-3-(1-oxa-7-azaspiro[3.5]nonan-7-yl)-1-(6-pyridazin-4-yl-3-pyridyl)propyl]-6,8-dihydro-5H-acridine-2-carboxamide] the figure was 60.3 nM; with `CC(C)[C@]1(F)CCc2nc3c(F)cc(C(=O)N[C@H](CCN4CC(O)C4)c4ccc(-c5ccnnc5)nc4)cc3cc2C1` (racemic) [Example 63, rac-(7S)-4,7-difluoro-7-isopropyl-N-[rac-(1R)-3-(3-hydroxyazetidin-1-ium-1-yl)-1-(6-pyridazin-4-yl-3-pyridyl)propyl]-6,8-dihydro-5H-acridine-2-carboxamide;2,2,2-trifluoroacetate], 1190 nM; with `CC(C)[C@]1(F)CCc2nc3c(F)cc(C(=O)N[C@H](CCN4CCC(C(F)(F)F)CC4)c4ccc(-c5ccnnc5)nc4)cc3cc2C1` (racemic) [Example 64, rac-(7S)-4,7-difluoro-7-isopropyl-N-[rac-(1R)-1-(6-pyridazin-4-yl-3-pyridyl)-3-[4-(trifluoromethyl)-1-piperidyllpropyl]-6,8-dihydro-5H-acridine-2-carboxamide], 1060 nM. Consider `COC(=O)CC1CCN(CC[C@@H](NC(=O)c2ccc3nc4c(cc3c2)C[C@@H](C2(C)CC2)CC4)c2cccc(C(=O)NC3CN(C)C3)c2)CC1` (racemic) [Example 65, methyl 2-[1-[rac-(3R)-3-[(1-methylazetidin-3-yl)carbamoyl]phenyl]-3-[[rac-(7S)-7-(1-methylcyclopropyl)-5,6,7,8-tetrahydroacridine-2-carbonyl]amino]propyl]-4-piperidyl]acetate], for which the response was half-maximal at 359 nM (EC50). With `CN1CC(NC(=O)c2cccc([C@@H](CCN3CCC(CC(=O)O)CC3)NC(=O)c3ccc4nc5c(cc4c3)C[C@@H](C3(C)CC3)CC5)c2)C1` (racemic) [Example 66, 2-[1-[rac-(3R)-3-[3-[(1-methylazetidin-3-yl)carbamoyl]phenyl]-3-[[rac-(7S)-7-(1-methylcyclopropyl)-5,6,7,8-tetrahydroacridine-2-carbonyl]amino]propyl]-4-piperidyl]acetic acid] the figure was 398 nM; with `CN(C)CC[C@@H](NC(=O)c1ccc2nc3c(cc2c1)C[C@@H](C1(C)CC1)CC3)c1cccc(C(=O)NC2CN(C)C2)c1` (racemic) [Example 67, rac-(7S)-7-(1-methylcyclopropyl)-N-[rac-(1R)-3-(dimethylamino)-1-[3-[(1-methylazetidin-3-yl)carbamoyl]phenyl]propyl]-5,6,7,8-tetrahydroacridine-2-carboxamide], 378 nM; with `CN1CC(NC(=O)c2cccc([C@@H](CCN3CCC(O)CC3)NC(=O)c3ccc4nc5c(cc4c3)C[C@@H](C3(C)CC3)CC5)c2)C1` (racemic) [Example 68, rac-(7S)-7-(1-methylcyclopropyl)-N-[rac-(1R)-3-(4-hydroxy-1-piperidyl)-1-[3-[(1-methylazetidin-1-ium-3-yl)carbamoyl]phenyl]propyl]-5,6,7,8-tetrahydroacridine-2-carboxamide;2,2,2-trifluoroacetate], 369 nM. The same measure for `CCS(=O)(=O)c1ccc([C@@H](CCN2CCC(O)CC2)NC(=O)c2cc(F)c3nc4c(cc3c2)CC(F)(C(C)C)CC4)cn1` (stereo in doubt) [Example 30, (S)-N-((R)-1-(6-(ethylsulfonyl)pyridin-3-yl)-3-(4-hydroxypiperidin-1-yl)propyl)-4,7-difluoro-7-isopropyl-5,6,7,8-tetrahydroacridine-2-carboxamide]: 970 nM.

Compound `CC1([C@H]2CCc3nc4ccc(C(=O)N[C@H](CCN5CCC(O)CC5)c5ccc(N6CCOC6=O)cc5)cc4cc3C2)CC1` [Example 1, (S)-N-((R)-3-(4-hydroxypiperidin-1-yl)-1-(4-(2-oxooxazolidin-3-yl)phenyl)propyl)-7-(1-methylcyclopropyl)-5,6,7,8-tetrahydroacridine-2-carboxamide] gave an EC50 of 701 nM. `CC1([C@H]2CCc3nc4ccc(C(=O)N[C@H](CCN5CCC[C@H]5CO)c5ccc(N6CCOC6=O)cc5)cc4cc3C2)CC1` [Example 2, (S)-N-((R)-3-((S)-2-(hydroxymethyl)pyrrolidin-1-yl)-1-(4-(2-oxooxazolidin-3-yl)phenyl)propyl)-7-(1-methylcyclopropyl)-5,6,7,8-tetrahydroacridine-2-carboxamide] returned an EC50 of 1720 nM. The same measure for `CC(C)(C)[C@H]1CCc2nc3ccc(C(=O)N[C@H](CCN4CCC(O)CC4)c4ccc(N5CCOC5=O)cc4)cc3cc2C1` [Example 3, (7S)-7-tert-butyl-N-{(1R)-3-(4-hydroxypiperidin-1-yl)-1-[4-(2-oxo-1,3-oxazolidin-3-yl)phenyl]propyl}-5,6,7,8-tetrahydroacridine-2-carboxamide]: 753 nM.
